Columns and labels:
Assay type in all cases: cell-based, Escherichia coli
EKO-35 araC::macAB = assay: MIC susceptibility profiling, efflux platform
Procedure, shortened: (§1)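 Overnight LB cultures resuspended in PBS to OD600 ~1.0, diluted 1/2000 into MHB II, and added to 2-fold serial compound dilutions in duplicate with DMSO controls. Incubated 18 h at 37° C. with 900 rpm shaking; OD600 read before and after, background subtracted, to derive MIC.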

EKO-35 araC::acrD = assay: MIC susceptibility profiling, efflux platform
Procedure, shortened: as §1

EKO-35 araC::mdtEF = assay: MIC susceptibility profiling, efflux platform
Procedure, shortened: as §1

EKO-35 araC::acrB = assay: MIC susceptibility profiling, efflux platform
Procedure, shortened: as §1

[1] = test system: EKO-35 araC::mexCD (MexCD from P. aeruginosa); assay: MIC susceptibility profiling, efflux platform
Procedure, shortened: as §1

EKO-35 araC::acrBD408A = assay: MIC susceptibility profiling, efflux platform
Procedure, shortened: as §1

EKO-35 araC::acrEF = assay: MIC susceptibility profiling, efflux platform
Procedure, shortened: as §1

EKO-35 araC::mdtBC = assay: MIC susceptibility profiling, efflux platform
Procedure, shortened: as §1

EKO-35 araC::emrAB = assay: MIC susceptibility profiling, efflux platform
Procedure, shortened: as §1

EKO-35 araC::emrKY = assay: MIC susceptibility profiling, efflux platform
Procedure, shortened: as §1

EKO-35 araC::mdtEF Pore = assay: MIC susceptibility profiling, porinated efflux platform; details: Table 14A; porinated; technical duplicate
Procedure, shortened: (§2)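 E. coli strains carrying a genomically integrated constitutive fhuA ΔC/Δ4L pore were grown 18 h in LB at 37 °C, then diluted 1/2000 in MHB II from OD600 ~1.0. Compounds were tested in duplicate, 2-fold serial titration, for 18 h at 37 °C with shaking. MIC came from OD600 with the pre-incubation background subtracted.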

EKO-35 araC::emrKY Pore = assay: as above
Procedure, shortened: as §2

EKO-35 araC::macAB Pore = assay: as above
Procedure, shortened: as §2

EKO-35 araC::acrEF Pore = assay: as above
Procedure, shortened: as §2

[2] = test system: wild-type E. coli K-12 str. BW25113; assay: microbe, parasite or virus in culture; details: technical duplicate
Procedure, shortened: as §1

E. coli EKO-35 = assay: microbe, parasite or virus in culture
Procedure, shortened: as §1

E. coli ΔtolC = assay: microbe, parasite or virus in culture; details: technical duplicate
Procedure, shortened: as §1

ΔtolC-Pore = assay: microbe, parasite or virus in culture; details: technical duplicate
Procedure, shortened: as §2

wild-type (WT) K-12-Pore = assay: microbe, parasite or virus in culture; details: technical duplicate
Procedure, shortened: as §2

[3] = Table 13B, non-porinated, technical duplicate
[4] = Table 13A, non-porinated, technical duplicate

## CC(C)c1ccc(C=C(C#N)c2nc3ccccc3[nH]2)cc1 [compound 12]
EKO-35 araC::macAB; EKO-35 araC::macAB compared to EKO-35
  Fold change of MICs: 1 fold
EKO-35 araC::macAB; [3]
  Minimum Inhibitory Concentration, EKO-35 araC::macAB: 320 µg/mL
EKO-35 araC::acrD; EKO-35 araC::acrD compared to EKO-35
  Fold change of MICs: 1 fold
EKO-35 araC::acrD; [4]
  Minimum Inhibitory Concentration, EKO-35 araC::acrD: 320 µg/mL
EKO-35 araC::mdtEF; EKO-35 araC::mdtEF compared to EKO-35
  Fold change of MICs: 1 fold
EKO-35 araC::mdtEF; [4]
  Minimum Inhibitory Concentration, EKO-35 araC::mdtEF: 320 µg/mL
EKO-35 araC::acrB; EKO-35 araC::acrB compared to EKO-35
  Fold change of MICs: 1 fold
EKO-35 araC::acrB; [4]
  Minimum Inhibitory Concentration, EKO-35 araC::acrB: 320 µg/mL
[1]; EKO-35 araC::mexCD compared to EKO-35
  Fold change of MICs: 1 fold
[1]; [3]
  Minimum Inhibitory Concentration, EKO-35 araC::mexCD: 320 µg/mL
EKO-35 araC::acrBD408A; EKO-35 araC::acrBD408A compared to EKO-35
  Fold change of MICs: 1 fold
EKO-35 araC::acrBD408A; [3]
  Minimum Inhibitory Concentration, EKO-35 araC::acrBD408A: 320 µg/mL
EKO-35 araC::acrEF; EKO-35 araC::acrEF compared to EKO-35
  Fold change of MICs: 1 fold
EKO-35 araC::acrEF; [4]
  Minimum Inhibitory Concentration, EKO-35 araC::acrEF: 320 µg/mL
EKO-35 araC::mdtBC; EKO-35 araC::mdtBC compared to EKO-35
  Fold change of MICs: 1 fold
EKO-35 araC::mdtBC; [3]
  Minimum Inhibitory Concentration, EKO-35 araC::mdtBC: 320 µg/mL
EKO-35 araC::emrAB; EKO-35 araC::emrAB compared to EKO-35
  Fold change of MICs: 1 fold
EKO-35 araC::emrAB; [3]
  Minimum Inhibitory Concentration, EKO-35 araC::emrAB: 320 µg/mL
EKO-35 araC::emrKY; EKO-35 araC::emrKY compared to EKO-35
  Fold change of MICs: 1 fold
EKO-35 araC::emrKY; [3]
  Minimum Inhibitory Concentration, EKO-35 araC::emrKY: 320 µg/mL
EKO-35 araC::mdtEF Pore
  Minimum inhibitory concentration, EKO-35 araC::mdtEF Pore: 320 µg/mL
EKO-35 araC::emrKY Pore; EKO-35 araC::emrKY Pore compared to EKO-35-Pore
  Fold changes of MICs: 2 fold
EKO-35 araC::emrKY Pore; EKO-35 araC::emrKY Pore, technical duplicate
  Minimum inhibitory concentration: 320 µg/mL
EKO-35 araC::macAB Pore; EKO-35 araC::macAB Pore compared to EKO-35-Pore
  Fold changes of MICs: 2 fold
EKO-35 araC::macAB Pore; EKO-35 araC::macAB Pore, technical duplicate
  Minimum inhibitory concentration: 320 µg/mL
EKO-35 araC::acrEF Pore; EKO-35 araC::acrEF Pore compared to EKO-35-Pore
  Fold changes of MICs: 2 fold
EKO-35 araC::acrEF Pore; Table 14A, porinated, technical duplicate
  Minimum inhibitory concentration, EKO-35 araC::acrEF Pore: 320 µg/mL
[2]; Table 10, without pore
  Minimum inhibitory concentration (MIC), K-12: 320 µg/mL
[2]; Table 13A, non-porinated
  Minimum Inhibitory Concentration, K-12: 320 µg/mL
E. coli EKO-35; EKO-35 compared to EKO-35 (reference)
  Fold change of MICs: 1 fold
E. coli EKO-35; Table 10, without pore, technical duplicate
  Minimum inhibitory concentration (MIC), EKO-35: 320 µg/mL
E. coli EKO-35; [4]
  Minimum Inhibitory Concentration, EKO-35: 320 µg/mL
E. coli ΔtolC; Table 10, without pore
  Minimum inhibitory concentration (MIC), ΔtolC: 1.25 µg/mL
E. coli ΔtolC; Table 13A, non-porinated
  Minimum Inhibitory Concentration, ΔtolC: 1.25 µg/mL
ΔtolC-Pore; Table 10, with pore
  Minimum inhibitory concentration (MIC), Pore ΔtolC: 0.625 µg/mL
ΔtolC-Pore; Table 14A, porinated
  Minimum inhibitory concentration, ΔtolC-Pore: 0.625 µg/mL
wild-type (WT) K-12-Pore; Table 10, with pore
  Minimum inhibitory concentration (MIC), Pore K-12: 320 µg/mL
wild-type (WT) K-12-Pore; Table 14A, porinated
  Minimum inhibitory concentration, K-12 (WT)-Pore: 320 µg/mL

Source: patent US20230407243A1, “GENETIC PLATFORM TO INVESTIGATE THE FUNCTIONS OF BACTERIAL DRUG EFFLUX PUMPS” (priority 2022, published 2023)
